In patent US5198457A, “Treatment of hyperthyroidism with 1,3-dihydro-1[2-(2-thienyl)alkyl]-2H-imidazole-2-thiones” (Merrell Dow Pharmaceuticals Inc., priority 1992, dated 1993):

Columns and labels:
thyroid [1] = assay: Three month rat study, gavage: thyroid histology and thyroid weight; format: in vivo, Sprague-Dawley rats; conditions: for Thyroid follicular cell hyperplasia (incidence), treatment: up to three months, gavage; for Thyroid weight, treatment / Thyroid weight, recovery: mean ± standard deviation; for Thyroid weight, recovery: one month recovery
Method: (§1) Collectively, these findings are consistent with drug-induced inhibition of thyroid function and resulting morphological alterations due to compensatory stimulation of increased TSH due to decreased secretion of thyroid hormones.
(§2) For this study Sprague-Dawley rats were divided into groups of 33 males and 33 females and administered by gavage 0, 50 and 200 mg/kg/day of 1,3-dihydro-1-[2-(2-thienyl)ethyl]-2H-imidazole-2-thione in 0.5% aqueous methylcellulose for up to three months. Additional pharmacokinetic study of drug levels was performed by bleeding 3 males and 3 females from each group either 2 or 24 hours posdosing on treatment days 1, 45 and 87. Study parameters included daily observation of behavior; weekly observations of physical condition, food consumption and body weight; and terminal ophthalmoscopic evaluation, serum clinical chemistry, hematology, organ weights, and gross and microscopic tissue examinations.

[2] = Three month rat study, gavage: serum cholesterol; format: in vivo, Sprague-Dawley rats
Method: as §1, §2

[3] = tested on: thyroid follicular epithelium; assay: Two week rat study, oral gavage: thyroid findings; format: in vivo, Sprague-Dawley rats
Method: The activity of the compounds of Formula I is illustrated through their effects on thyroid function in the rat.
(§3) Sprague-Dawley rats were divided into groups of five males and five females and administered daily by gavage 0, 50, 100, 200, 300, 500, 700 and 1,000 mg/kg/day for two weeks under both fed and fasted conditions. Behavior of the rats was monitored daily while body weight, food consumption and clinical signs were measured weekly. At the termination of the study, rats were bled for clinical chemistry and hematology determinations. After bleeding, rats were sacrificed and necropsied in order that organs could be examined grossly, and tissue specimens were collected for subsequent microscopic examination.

[4] = Two week rat study: clinical chemistry (cholesterol); format: in vivo, Sprague-Dawley rats
Method: as §3

thyroid [5] = conditions: Fuller et al. 1977; cited from earlier work
[6] = tested on: dopamine beta-hydroxylase; conditions: relative to methimazole analogs with larger 1-alkyl substituents; Fuller et al. 1977; cited from earlier work
[7] = 200 mg/kg/day, female, P < 0.01 compared to controls

In the case of S=c1[nH]ccn1CCc1cccs1 [1,3-Dihydro-1-[2-(2-thienyl)ethyl]-2H-imidazole-2-thione], the “Thyroid follicular cell hyperplasia (incidence), treatment” value (thyroid [1]; 50 mg/kg/day, female) is reported as 7/10, the “Thyroid weight, treatment” value (thyroid [1]; 50 mg/kg/day, female, P < 0.01 compared to controls) is reported as “.03 ± .01 gm” and the “Thyroid follicular cell hyperplasia (incidence), recovery” value (thyroid [1]; 50 mg/kg/day, female, one month recovery from dosing) is reported as 0/5. For the same compound, the “Thyroid weight, recovery” value (thyroid [1]; 50 mg/kg/day, female) was “.02 ± .00 gm”, the “Thyroid follicular cell hyperplasia (incidence), treatment” value (thyroid [1]; 50 mg/kg/day, male) was 10/10 and the “Thyroid weight, treatment” value (thyroid [1]; 50 mg/kg/day, male, P < 0.01 compared to controls) was “.04 ± .01 gm”. For the same compound, the “Thyroid follicular cell hyperplasia (incidence), recovery” value (thyroid [1]; 50 mg/kg/day, male, one month recovery from dosing) was 0/5, the “Thyroid weight, recovery” value (thyroid [1]; 50 mg/kg/day, male) was “.03 ± .01 gm” and the “Thyroid follicular cell hyperplasia (incidence), treatment” value (thyroid [1]; 200 mg/kg/day, female) was 10/10. The “Thyroid weight, treatment” value (thyroid [1]; [7]) was “.06 ± .03 gm”, the “Thyroid follicular cell hyperplasia (incidence), recovery” value (thyroid [1]; 200 mg/kg/day, female, one month recovery from dosing) was 8/10 and the “Thyroid weight, recovery” value (thyroid [1]; [7]) was “.03 ± .01 gm”. The “Thyroid follicular cell hyperplasia (incidence), treatment” value (thyroid [1]; 200 mg/kg/day, male) was 10/10, the “Thyroid weight, treatment” value (thyroid [1]; 200 mg/kg/day, male, P < 0.01 compared to controls) was “.14 ± .08 gm” and the “Thyroid follicular cell hyperplasia (incidence), recovery” value (thyroid [1]; 200 mg/kg/day, male, one month recovery from dosing) was 0/5. The “Thyroid weight, recovery” value (thyroid [1]; 200 mg/kg/day, male, P < 0.05 compared to controls) was “.05 ± .01 gm”, the “Reversibility of thyroid findings” value (thyroid [1]; one month recovery from dosing) was “nearly completely reversible” and the “Thyroid effects, three month study” value (thyroid [1]; single daily doses of 50 and 200 mg/kg/day) was “profound thyroid effects characterized by thyroid follicular cell hyperplasia, increased thyroid weights and hypercholesteremia”. The “Serum cholesterol, treatment” value ([2]; 50 mg/kg/day, female (control 71)) was 88 mg/dL, the “Serum cholesterol, recovery” value ([2]; 50 mg/kg/day, female, one month recovery (control 66)) was 86 mg/dL and the “Serum cholesterol, treatment” value ([2]; 50 mg/kg/day, male (control 63)) was 81 mg/dL. The “Serum cholesterol, recovery” value ([2]; 50 mg/kg/day, male, one month recovery (control 75)) was 74 mg/dL, the “Serum cholesterol, treatment” value ([2]; 200 mg/kg/day, female (control 71)) was 105 mg/dL and the “Serum cholesterol, recovery” value ([2]; 200 mg/kg/day, female, one month recovery (control 66)) was 76 mg/dL. For the same compound, the “Serum cholesterol, treatment” value ([2]; 200 mg/kg/day, male (control 63)) was 97 mg/dL, the “Serum cholesterol, recovery” value ([2]; 200 mg/kg/day, male, one month recovery (control 75)) was 76 mg/dL and the “Thyroid follicular epithelium findings, lower doses” value ([3]; 100-300 mg/kg/day males, 50-300 mg/kg/day females, two weeks) was “mainly hypertrophic with minimal colloid involution”. For the same compound, the “Thyroid follicular cell findings, high doses” value ([3]; >500 mg/kg/day, two weeks) was “diffuse hyperplasia, hypertrophy, increased mitotic FIGURES, and involution or total absence of luminal colloid”, the “Onset of effect on thyroid follicular epithelium” value ([3]; oral, 50 to 700 mg/kg/day) was “three to four” and the “Effect on thyroid follicular epithelium” value ([3]; oral, 50 to 700 mg/kg/day, two weeks) was “striking effects on the thyroid follicular epithelium”. For the same compound, the “Effect on thyroid gland at high doses” value ([3]; rat, high doses) was “lesions in the thyroid gland and associated clinicopathological findings that indicate thyroid hormone synthesis is reduced or inhibited”, the “Cholesterol level, % of pretest values” ([4]; females, doses >200 mg/kg/day) was “approximately 135%” and the “Cholesterol level, % of pretest values” ([4]; males, doses >500 mg/kg/day) was “approximately 135%”.
For Sc1nccn1C1CCCCC1 [1-cyclohexyl-2-mercaptoimidazole (CHMI), 1-cyclohexyl-2-mercaptoimidazole], the Antithyroid activity (thyroid [5]) is given as “only slight antithyroid activity” and the DBH-inhibiting activity [6] is given as “greatest DBH inhibition”.
In the case of Cn1ccnc1S [methimazole, 1-methyl-2-mercaptoimidazole], the DBH-inhibiting activity [6] is listed as “less pronounced than that of methimazole analogs bearing larger 1-alkyl substituents”.
